Data from ChEMBL document CHEMBL1143788, “Trifunctional norrisolide probes for the study of Golgi vesiculation” (2007).
The source made the active and inactive calls. No cut-off for these calls is given here.

Columns and labels:
NRK [1] = test: Effect on Golgi fragmentation in NRK cells at 30 uM for 60 mins; assay type: functional, Rattus norvegicus
NRK [2] = test: Effect on Golgi fragmentation in NRK cells for 60 mins; assay type: functional

SMILES: CC1(C)CCC[C@]2(C)[C@@H](OC(=O)c3ccc(N=[N+]=[N-])cc3OCCCNC(=O)CCCC[C@@H]3SC[C@@H]4NC(=O)N[C@@H]43)CC[C@@H]12
- Activity (NRK [1]): 50%

SMILES: CC1(C)CCC[C@]2(C)[C@@H](OC(=O)c3ccc(OCC4CO4)cc3OCC(=O)NCCOCCOCCNC(=O)CCCC[C@@H]3SC[C@@H]4NC(=O)N[C@@H]43)CC[C@@H]12 (stereo not given in full)
- Activity (NRK [2]; Rattus norvegicus): Active

SMILES: CC1(C)CCC[C@]2(C)[C@@H](OC(=O)c3ccc(OCCCNC(=O)CCCC[C@@H]4SC[C@@H]5NC(=O)N[C@@H]54)cc3OCC3CO3)CC[C@@H]12 (stereo not given in full)
- Activity (NRK [2]): <10%

SMILES: COC(=O)c1ccc(N=[N+]=[N-])cc1OCCCNC(=O)CCCC[C@@H]1SC[C@@H]2NC(=O)N[C@@H]21
- Activity (NRK [1]; Rattus norvegicus): inactive

SMILES: CC1(C)CCC[C@]2(C)[C@@H](OC(=O)c3cc(I)c(OCC4CO4)cc3OCC3CO3)CC[C@@H]12 (stereo not given in full)
- Activity (NRK [2]): >80%
